How the values were obtained:
[1] = test system: Primary human hepatic stellate cells; assay: TGFβ1-induced Col1a1 gene expression in primary human hepatic stellate cells (RT-qPCR); type: cell-based; details: for Col1a1 gene expression, in words: primary human hepatic stellate cells from three donors, 3 ng/mL TGFβ1, 24 h
Procedure: Primary human hepatic stellate cells were obtained from Samsara Sciences based on the following criteria for selecting donors: adult age (between 18 and 50 years), normal BMI (>18.5 and <25), and absence of confounding liver disease. Cells grown in Complete HSC Medium to ˜80% confluence in T75 or T150 flasks below passage 10 were seeded into sterile, collagen I coated, 96-well optical plastic microplates (ThermoScientific, 152036) at 6000 cells per well ([…]) and incubated overnight at 37° C., 5% CO2 in a humidified incubator in DMEM with 2% Fetal Bovine Serum and 1% Antibiotic-Antimycotic.
After the overnight incubation, plates were removed from the incubator and the medium was gently pipetted off and washed twice with 150 μL per well DPBS. The DPBS was removed and the pretreatment medium (±single amino acid dropout, 1×HMDB DMEM+1% Antibiotic-Antimycotic, 10 mM HEPES, ±supplemental amino acid dose; see experiment for medium composition) was applied to the cells at 150 μL per well. Plates were returned to the incubator for 10.5 hours.
After 10.5 hour pretreatment, the medium was removed from the cells, and the same pretreatment medium, now supplemented with 3 ng/mL TGFβ1, was applied. Each plate contained 3 ng/mL TGFβ1 in 1× human plasma amino acid (HMDB or PAA) concentration medium, 0 ng/mL in 1×HMDB, and 3 ng/mL TGFβ1+20 μM Silybin in 1×HMDB to serve as controls. Plates were then incubated for 24 hours at 37° C., 5% CO2.
After 24 hour stimulus, supernatant was removed and frozen at −80° C. in two separate aliquots. The cells were then washed with 125 μL per well Buffer FCW (FastLane Cell Multiplex NR Kit, Qiagen, 216713). The wash buffer was immediately removed and 50 μL of Cell Processing Mix (containing genomic DNA Wipeout buffer) was applied to lyse cells, incubating for 10 minutes at room temperature. RNA lysate was then transferred to 96-well qPCR plates, sealed, and gDNA was digested on thermal cycler at 75° C. for 5 minutes. RNA lysate was frozen at −80° C.
Each 20 μL one-step RT-qPCR reaction contained 4 μL of RNA lysate. Gene expression of Col1a1, Timp2, and Gapdh were multiplexed using the HEX, Cy5, and FAM fluorescent channels, respectively, with commercially available primer-probe mixes (the Human Col1a1 Primer-Probe Set, HEX; the Human Timp2 Primer-Probe Set, Cy5; and the Human Gapdh Primer-Probe Set, FAM from IDT). Gene expression was evaluated using the ΔΔCq method within each single amino acid dropout and supplementation by normalizing to its own 1×HMDB concentration.

[2] = test system: human primary hepatocytes; assay: MCP1/CCL2 secretion in primary human hepatocytes exposed to free fatty acids + TNFα (ELISA); type: cell-based; details: primary human hepatocytes from two healthy donors, 24 h
Procedure: Hepatocyte lipotoxicity appears to be a central driver of hepatic cellular injury via oxidative stress and endoplasmic reticulum (ER) stress. The ability of amino acids to influence steatosis (lipid accumulation) and inflammation in hepatocytes was assessed using human primary hepatocytes (Lonza, TRL).
Primary hepatocytes lot nos. from two healthy human donors were seeded on day 0 at density of 6e04 cells in 96 well optical microplates (Thermofisher) in hepatocyte plating media (William's E medium (Gibco) supplemented with 10% heat-inactivated FBS (Atlanta Bio), 2 mM Glutamax (Gibco), 1×ITS plus (R&D systems), and 0.2% Primocin (InVivoGen) and incubated for 6 hours at 37° C., 5% CO2. After 6 hours, cells were washed twice with 150 ul William's E medium and incubated overnight at 37° C., 5% CO2 with serum-free hepatocytes culture media (Hepatocytes defined medium (Corning)) supplemented with 5 ug human recombinant EGF (Corning), 2 mM Glutamax (Gibco), and 1× Penicillin/Streptomycin. On day 1, cells were washed twice with 150 μL per well William's E medium (Gibco) and incubated for 24h in the hepatocyte culture media in the same conditions described above.
On day 2, cells were washed twice with 150 ul DPBS 1× (Gibco) and maintained in amino acid-free WEM (US Biologicals) containing a defined custom amino acid concentration based on the mean physiological concentrations in blood. The values are published in the Human Metabolome Database (Wishart D S, Tzur D, Knox C, et al., HMDB: the Human Metabolome Database. Nucleic Acids Res. 2007 January; 35(Database issue):D521-6. 17202168; which is hereby incorporated by reference in its entirety). This custom media is supplemented with 11 mM Glucose, 0.272 mM Sodium Pyruvate, and a dose curve of defined amino acid compositions (i.e., vehicle, LIVRQ+N-acetylcysteine, LIVRQ, RQ+N-acetylcysteine, N-acetylcysteine alone, LIV, or individually with L-Leucine, L-Isoleucine, L-Valine, L-Arginine, L-Glutamine, and L-Cysteine) at various ranges of concentrations. Cells were maintained in this defined media for 24 hours at 37° C., 5% CO2.
After pre-treatment, cells were exposed to free fatty acids (FFA) at 250 uM with a ratio of 2:1 (Oleate:Palmitate) supplemented with TNF-α (Thermofisher) at 1 ng/ml or vehicle. Cells were incubated with the FFAs mixture and the different amino acids combinations for 24 hours at 37° C., 5% CO2. After 24 hours incubation, media was removed for cytokine analysis and replaced by fresh media containing the same stimulus conditions and amino acid concentrations. Cells were incubated for an additional 48 hours for a total of 72 hours of FFA and TNFα stimulation.
Human CCL2 (MCP-1) was measured by ELISA (Human […] DuoSet ELISA, R&D Systems) at 1/5 or 1/10 dilution in 1× Reagent Diluent (Reagent Ancillary Kit 2, R&D Systems). Data were normalized to the specific per well cell density determined by nuclei count stained by Hoechst 3342 (Life technologies) in the fluorescence microscopy described below.

| SMILES | Col1a1 gene expression, in words [1] | MCP1/CCL2 secretion, in words [2] | Col1a1 Fold Expression Relative to Control, Mean ([1]; second donor, normalized to Gapdh, Conc. 153 μM (baseline)) [fold] |
| --- | --- | --- | --- |
| N=C(N)NCCC[C@H](N)C(=O)O [Arginine, L-Arginine] | did not significantly change | increased | – |
| NC(=O)CC[C@H](N)C(=O)O [Glutamine, L-Glutamine] | decreased Col1a1 gene expression in two of three donors | significantly decrease | – |
| CC[C@H](C)[C@H](N)C(=O)O [Isoleucine, L-Isoleucine] | did not significantly change | did not have an effect | – |
| CC(C)C[C@H](N)C(=O)O [Leucine, L-Leucine] | did not significantly change | did not have an effect | 1.01 |
| CC(=O)N[C@@H](CS)C(=O)O [N-acetylcysteine] | significantly reduced Col1a1 gene expression in all three donors | significantly decrease | – |
| CC(C)[C@H](N)C(=O)O [Valine, L-Valine] | did not significantly change | did not have an effect | – |
